Bridge positions count the residues as written; N and C are the ends. Peptide text beside a SMILES is read from it.

One experiment concerns the target adrenomedullin receptor (Homo sapiens, UniProt O60895+Q16602). Nature of the experiment: adrenomedullin (ADM) receptor binding assay. As to conditions: Table 6.
Another experiment concerns the target T1, calcitonin receptor (Rattus norvegicus, UniProt P32214).
T1 sequence (P32214 25-516): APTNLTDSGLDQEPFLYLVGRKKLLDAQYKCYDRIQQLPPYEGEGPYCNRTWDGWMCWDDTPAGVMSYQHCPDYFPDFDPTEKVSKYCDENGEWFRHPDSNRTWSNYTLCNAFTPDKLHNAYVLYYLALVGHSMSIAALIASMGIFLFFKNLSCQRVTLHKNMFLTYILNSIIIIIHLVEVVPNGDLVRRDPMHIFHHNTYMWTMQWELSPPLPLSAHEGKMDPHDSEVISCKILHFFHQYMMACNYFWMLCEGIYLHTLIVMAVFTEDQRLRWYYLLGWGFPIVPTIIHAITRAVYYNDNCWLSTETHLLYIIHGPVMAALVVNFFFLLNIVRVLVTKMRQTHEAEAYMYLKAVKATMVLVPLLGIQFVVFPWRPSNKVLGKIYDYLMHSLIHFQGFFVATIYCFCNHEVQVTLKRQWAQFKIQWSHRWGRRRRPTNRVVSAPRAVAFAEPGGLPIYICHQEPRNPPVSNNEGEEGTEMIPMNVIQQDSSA
Nature of the experiment: calcitonin receptor binding assay (rCalcitonin RBA). As to conditions: Table 6; read-out: CT receptor binding.

Sequence of adrenomedullin receptor (Q16602 23-461): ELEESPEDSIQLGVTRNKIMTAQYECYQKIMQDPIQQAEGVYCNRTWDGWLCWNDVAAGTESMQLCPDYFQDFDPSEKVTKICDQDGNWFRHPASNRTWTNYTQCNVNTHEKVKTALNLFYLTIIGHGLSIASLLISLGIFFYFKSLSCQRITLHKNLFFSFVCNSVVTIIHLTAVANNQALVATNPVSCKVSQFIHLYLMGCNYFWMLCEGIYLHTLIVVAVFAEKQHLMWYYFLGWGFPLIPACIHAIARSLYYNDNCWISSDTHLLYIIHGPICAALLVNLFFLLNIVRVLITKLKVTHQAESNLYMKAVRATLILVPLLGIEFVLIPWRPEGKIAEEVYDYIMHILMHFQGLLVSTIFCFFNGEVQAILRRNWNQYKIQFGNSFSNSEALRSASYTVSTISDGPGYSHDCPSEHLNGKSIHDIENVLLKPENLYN
Sequence of adrenomedullin receptor (O60895 43-175): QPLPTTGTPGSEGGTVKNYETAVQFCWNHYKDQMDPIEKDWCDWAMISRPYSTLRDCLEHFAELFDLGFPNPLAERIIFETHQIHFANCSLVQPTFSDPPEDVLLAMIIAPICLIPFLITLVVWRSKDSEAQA

Take `CC(C)C[C@H](NC(=O)[C@H](CCC(N)=O)NC(=O)[C@H](Cc1c[nH]c2ccccc12)NC(=O)[C@H](CC(C)C)NC(=O)[C@H](CCCNC(=N)N)NC(=O)[C@H](Cc1c[nH]cn1)NC(=O)[C@H](CO)NC(=O)[C@H](CC(C)C)NC(=O)[C@H](CC(N)=O)NC(=O)[C@H](CCC(N)=O)NC(=O)[C@@H](NC(=O)[C@H](CCC(N)=O)NC(=O)[C@@H]1CSSC[C@H](NC(=O)CNC(=O)[C@@H](N)C(C)C)C(=O)N[C@@H](C(C)C)C(=O)N[C@@H](CC(C)C)C(=O)NCC(=O)N[C@@H]([C@@H](C)O)C(=O)N1)C(C)C)C(=O)N[C@@H](CCCNC(=N)N)C(=O)N[C@@H](CCC(N)=O)C(=O)N[C@@H](CC(=O)O)C(=O)N[C@@H](CO)C(=O)N[C@@H](C)C(=O)N1CCC[C@H]1C(=O)N[C@H](C(=O)N[C@@H](CC(=O)O)C(=O)N1CCC[C@H]1C(=O)N[C@@H](CO)C(=O)N[C@@H](CO)C(=O)N1CCC[C@H]1C(=O)N[C@@H](Cc1c[nH]cn1)C(=O)N[C@@H](CO)C(=O)N[C@@H](Cc1ccc(O)cc1)C(N)=O)C(C)C` [compound 18] (H-VGCVLGTCQVQNLSHRLWQLRQDSAPVDPSSPHSY-NH2; disulfide 3-8 (inferred); N-terminus assumed): the IC50 was ≥ 1 µM on adrenomedullin receptor and 0.024 µM at calcitonin receptor.

`CSCC[C@H](NC(=O)[C@H](CC(C)C)NC(=O)[C@H](CCC(N)=O)NC(=O)[C@H](Cc1c[nH]c2ccccc12)NC(=O)[C@H](CC(C)C)NC(=O)[C@H](CCCNC(=N)N)NC(=O)[C@H](Cc1c[nH]cn1)NC(=O)[C@H](CO)NC(=O)[C@H](CC(C)C)NC(=O)[C@H](CC(N)=O)NC(=O)[C@H](CCC(N)=O)NC(=O)[C@@H](NC(=O)[C@H](CCC(N)=O)NC(=O)[C@@H]1CSSC[C@H](NC(=O)CN)C(=O)N[C@@H](C(C)C)C(=O)N[C@@H](CC(C)C)C(=O)NCC(=O)N[C@@H]([C@@H](C)O)C(=O)N1)C(C)C)C(=O)NCC(=O)N1CCC[C@H]1C(=O)N[C@@H](C)C(=O)NCC(=O)N[C@@H](CCCNC(=N)N)C(=O)N[C@@H](CCC(N)=O)C(=O)N[C@@H](CC(=O)O)C(=O)N[C@@H](CO)C(=O)N[C@@H](C)C(=O)N1CCC[C@H]1C(=O)N[C@H](C(=O)N[C@@H](CC(=O)O)C(=O)N1CCC[C@H]1C(=O)N[C@@H](CO)C(=O)N[C@@H](CO)C(=O)N1CCC[C@H]1C(=O)N[C@@H](Cc1c[nH]cn1)C(=O)N[C@@H](CO)C(=O)N[C@@H](Cc1ccc(O)cc1)C(N)=O)C(C)C` [compound 11] (H-GCVLGTCQVQNLSHRLWQLMGPAGRQDSAPVDPSSPHSY-NH2; disulfide 2-7 (inferred); N-terminus assumed): the values for the IC50 at adrenomedullin receptor and at calcitonin receptor were 0.011 µM and 0.027 µM, respectively.

For the compound “H-GMVLGTMQVQNLSHRLWQLMGPAGRQDSAPVDPSSPHSY-NH2 [compound 26]”, the IC50 on adrenomedullin receptor was 0.037 µM; on calcitonin receptor it was > 1 µM.

In the case of `CC(C)C[C@H](NC(=O)[C@H](CCC(N)=O)NC(=O)[C@H](Cc1c[nH]c2ccccc12)NC(=O)[C@H](CC(C)C)NC(=O)[C@H](CCCNC(=N)N)NC(=O)[C@H](Cc1c[nH]cn1)NC(=O)[C@H](CO)NC(=O)[C@H](CC(C)C)NC(=O)[C@H](CC(N)=O)NC(=O)[C@H](CCC(N)=O)NC(=O)[C@@H](NC(=O)[C@H](CCC(N)=O)NC(=O)[C@@H]1CSSC[C@H](NC(=O)CN)C(=O)N[C@@H](CO)C(=O)N[C@@H](CC(N)=O)C(=O)N[C@@H](CC(C)C)C(=O)N[C@@H](CO)C(=O)N[C@@H]([C@@H](C)O)C(=O)N1)C(C)C)C(=O)N[C@@H](CCCNC(=N)N)C(=O)N[C@@H](CCC(N)=O)C(=O)N[C@@H](CC(=O)O)C(=O)N[C@@H](CO)C(=O)N[C@@H](C)C(=O)N1CCC[C@H]1C(=O)N[C@H](C(=O)N[C@@H](CCC(=O)O)C(=O)N1CCC[C@H]1C(=O)N[C@@H](CO)C(=O)N[C@@H](CO)C(=O)N1CCC[C@H]1C(=O)N[C@@H](Cc1c[nH]cn1)C(=O)N[C@@H](CO)C(=O)N[C@@H](Cc1ccc(O)cc1)C(N)=O)C(C)C` [compound 38] (H-GCSNLSTCQVQNLSHRLWQLRQDSAPVEPSSPHSY-NH2; disulfide 2-8 (inferred); N-terminus assumed), the IC50 on calcitonin receptor worked out at 0.017 µM.

(Values after patent publication US7928060B2, “Amylin family polypeptide-6 (AFP-6) analogs and methods of making and using them” (Amylin Pharmaceuticals, Inc., priority 2004, dated 2011).)
